Measurements: US6476007B2, “Isoform specific inhibition for treatment of pain and reduction of anesthetic threshold” (The Johns Hopkins University, priority 1999, dated 2002)
Where a name gives a salt, the structure may show the parent alone. Read-outs that look alike come from different tables or passages of the source.

What was measured:
[1] = tested on: PKGIα expression in the spinal cord; test: Western blot of PKGIα in lumbar enlargement segments 96 h after formalin injection; type: in vivo, rat; conditions: 96 h formalin-treated rats, not significant (p>0.05)
Procedure: Thirty five rats were sacrificed by decapitation at 0 h (normal control), 24 h, 48 h and 96 h after injection of saline (100 μl) or formalin (100 μl, 4%) into a hind paw. Lumbar enlargement segments of the spinal cord were dissected, quickly frozen in liquid nitrogen and stored at −80° C. for later use. Frozen tissues were homogenized in the homogenization buffer (50 mM Tris-HCl, 0.1 mM EDTA, 0.1mM EGTA, 1 mM phenylmethylsulfonyl fluoride, 1 μM leupeptin, 2 μM pepstatin A, 0.1% 2-mercaptoethanol). The crude homogenate was centrifuged at 4° C. for 15 min at 3,000×g. The supernatants (100 μg) were heated for 5 min at 90° C. and then loaded onto 4% stacking/7.5% separating SDS-polyacrylamide gels. The proteins were electrophoretically transferred onto nitrocellulose membrane and blocked with 2% non-fat dry milk and subsequently incubated for 1 h with polyclonal rabbit anti-PKGIα antibody (1:500) and with monoclonal mouse anti-endothelium NOS (eNOS) antibody (1:500) (Transduction Labs). Normal lung was used as a positive control. Specific proteins were detected using horseradish peroxidase-conjugated anti-rabbit or anti-mouse secondary antibody and visualized using chemiluminescence reagents provided with the ECL kit (Amersham Life Sciences Inc, II) and exposure to film. The intensity of blots was quantified with densitometry (Personal Densitometer/IMAGEQUANT; Molecular Dynamics).
In some experiments, rats were injected intraperitoneally (i.p.) with an NMDA receptor antagonist, MK-801 (RBI, MA), a selective neuronal NOS inhibitor (nNOS), 7-Nitroindazole (7-NI, Alexis Biochemicals, CA) and a selective sGC inhibitor, 1H-[1,2,4]oxadiazolo[4,3-a]quinoxalin-1-one (ODQ, Alexis Biochemicals, CA), each day for 4 days (96 h). The doses of MK-801, 7-NI and ODQ used in the present study were determined regarding to the previous studies (29-31). The experiments were divided into five groups. Group 1 (n=4) as control: i.p. injection of saline (0.9%, 2 ml) or peanut oil (2 ml) 30 min prior to the subcutaneous injection of saline (0.9%, 100 μl). […]

[2] = tested on: NMDA-induced facilitation of the tail-flick reflex; test: NMDA-induced facilitation of the tail-flick reflex; type: in vivo, rat
[3] = tested on: NMDA-produced facilitation of the tail flick reflex; conditions: pretreatment, spinal cord; Meller et al., 1992a; cited from earlier work
[4] = tested on: mechanical allodynia induced by capsaicin; conditions: Sluka and Willis (1997); cited from earlier work
tail-flick latency = test: Radiant heat tail-flick test, agents given alone intrathecally; type: in vivo, rat; conditions: for maximal decrease in the tail-flick latency: compared to saline-treated group
[5] = Subjective observation of animal behavior after intrathecal administration; conditions: period of 2 h, compared with control animals
[6] = tested on: formalin-induced pain behavior; conditions: for reduction of the number of flinches and shakes evoked by formalin: 30 μg intrathecal
Procedure: The rats were implanted with an intrathecal catheter under pentobarbital anesthesia. A polyethylene (PE-10) tube was inserted into the subarachnoid space at the rostral level of the spinal cord lumbar enlargement through an incision at the atlanto-occipital membrane according to the method of Yaksh and Rudy (27). The animals were allowed to recover for 7 to 10 days before being used experimentally. Rats showing neurological deficits postoperatively were discarded.
(§1) The drug was dissolved in distilled water before administration. The animals were randomly assigned into four groups as follows: distilled water (control) (n=12); 10 μg of Rp-8-p-CPT-cGMPS (n=6); 20 μg of Rp-8-p-CPT-cGMPS (n=6); 30 μg of Rp-8-p-CPTc-GMPS (n=6). The drug solution was injected intrathecally in a volume of 10 μl, followed by an injection of 10 μl of distilled water to flush the catheter. Fifteen minutes later, formalin (100 μl, 4%) was injected into a hind paw of the rat. In addition, four rats were alone treated intrathecally with Rp-8-p-CPT-cGMPS (30 μg) and another four rats were normal without any treatment.
Immediately following the formalin injection, each individual rat was placed in a transparent cage for observation of the formalin-injected paw. The pain-related behaviors, flinches and shakes, were assessed for the next 60 min by an experimenter who was unaware of the group assignment. The observational session was divided into two periods: a phasic period (0-10 min) and a tonic period (10-60 min). The mean number of flinches and shakes for each period of each treatment group was determined

[7] = tested on: formalin-induced c-fos expression in the spinal cord; conditions: for number of Fos-positive neurons in laminae I-II, III-IV and V-VI: vs water pretreated rats; for mean reduction in number of fos-positive neurons per section: vs control group, p<0.05
Procedure: For Fos immunohistochemistry, rats were perfused one hour after the behavioral test was done as described below. The lumbar spinal cord was removed and cut into 30 μm transverse sections. Sections were processed following the above-mentioned procedures except that the primary antibody was substituted with polyclonal rabbit anti-Fos antibody (1:4,000, Santa Cruz Biotechnology, Inc., CA).
as §1

[8] = tested on: NOC-12-induced decrease in the tail-flick latency; conditions: for effect on NOC-12-induced decrease in the tail-flick latency: tested 30 and 60 min, p<0.01
Procedure: Rats were anesthetized by intraperitoneal injection of pentobarbital sodium (45 mg/kg). Chronic intrathecal catheters were inserted by passing a polyethylene-10 (PE-10) catheter through an incision in the atlanto-occipital membrane to a position 8 cm caudal to the cistema at the level of the lumbar subarachinoid space. The animals were allowed to recover for a week before experiments were initiated. Rats showing neurologic deficits post-operatively were removed from the study.
Nociception was evaluated by the radiant heat tail-flick test with no anesthesia. Each rat was placed in an Animal Holder (IITC Life Science, CA, USA), 690 cm^3 in capacity with rubber stoppers in both ends with a rostral inlet and a caudal outlet. The tail of the rat protruded through the caudal hole. The tail-flick apparatus (Model 33B Tail Flick Analgesy Meter, IITC Life Science, CA, USA) generated a beam of radiant heat which was focused on the underside of the tail, 5 cm from the tip. […] Nociception was assessed by the prolongation of the time required to induce tail-flick after applying radiant heat to the skin of the tail. The latency of reflexive removal of the tail from the heat was measured automatically to the nearest 0.01 s. Tail-flick latency was measured six times and the basal latency was defined as the mean of the last five times. The tail-flick data are expressed as percentage change calculated by the formula: (trial latency—baseline latency)/(baseline latency)×100%.
The drug solution was injected intrathecally in a volume of 10 μl, followed by an injection of 10 μl of saline to flush the catheter.

[9] = 100 mg/kg i.p. in peanut oil each day for 4 days

Structure (SMILES): C[C@]12N[C@H](Cc3ccccc31)c1ccccc12 [MK-801, dizocilpine maleate]
- PKGIα protein level relative to group 1 (saline-injected control) ([1]; 2 mg/kg i.p. each day for 4 days): 1.13 fold
- effect on NMDA-produced facilitation of the tail-flick reflex ([2]; prior intrathecal treatment, p<0.01): completely abolished

Structure (SMILES): CN(C)c1ccc2nc3ccc(=[N+](C)C)cc-3sc2c1 [methylene blue]
- effect on NMDA-produced facilitation of the tail flick reflex [3]: completely abolished

Structure (SMILES): COC(=O)[C@@H](N)CCCNC(=N)N[N+](=O)[O-] [N^G-nitro-L-arginine methyl ester]
- effect on NMDA-produced facilitation of the tail flick reflex [3]: completely abolished

Structure (SMILES): O=c1onc2cnc3ccccc3n12 [ODQ, 1H-[1,2,4]oxadiazolo[4,3-a]quinoxalin-1-one]
- PKGIα protein level relative to group 1 (saline-injected control) [1, 9]: 1.14 fold

Structure (SMILES): COC(=O)[C@@]1(OC)C[C@H]2O[C@]1(C)n1c3ccccc3c3c4c(c5c6ccccc6n2c5c31)C(=O)N(C)C4 [KT5823]
- effect on mechanical allodynia induced by capsaicin [4]: reversed

Structure (SMILES): CN[C@H](CC(=O)O)C(=O)O [NMDA, N-methyl-D-aspartate]
- tail-flick latency after intrathecal administration (tail-flick latency; intrathecal NMDA, baseline 6.58±0.57 seconds, p<0.01): 4.88 ± 0.41 s
- changes in animal behavior on subjective observation [5]: caudally directed biting and scratching behaviors

Structure (SMILES): CCN(CC)CC.Nc1nc2c(nc(Sc3ccc(Cl)cc3)n2[C@@H]2O[C@@H]3COP(O)(=S)O[C@H]3[C@H]2O)c(=O)[nH]1 (stereo partly drawn) [Rp-8-p-CPT-cGMPS, Rp-8-[(4-Chlorophenyl)thio]-cGMPS triethylamine]
- effect on the formalin response ([6]; 10 μg intrathecal, phasic or tonic period): did not influence
- effect on the formalin-induced behavior ([6]; 20 μg intrathecal, phasic period): no effect
- suppression of the formalin-induced behavior ([6]; 20 μg intrathecal, tonic period, p<0.01): 25%
- reduction of the number of flinches and shakes evoked by formalin ([6]; phasic period (0-10 min), p<0.01): 64%
- reduction of the number of flinches and shakes evoked by formalin ([6]; tonic period (10-60 min), p<0.01): 66%
- number of Fos-positive neurons in laminae I-II, III-IV and V-VI ([7]; 20 μg intrathecal): significantly decreased
- mean reduction in number of fos-positive neurons per section ([7]; 30 μg intrathecal, neck of dorsal horn): 51%
- mean reduction in number of fos-positive neurons per section ([7]; 30 μg intrathecal, nucleus proprius): 30%
- mean reduction in number of fos-positive neurons per section ([7]; 30 μg intrathecal, superficial laminae): 29%
- number of Fos-positive neurons in laminae I-II, III-IV and V-VI ([7]; 30 μg intrathecal): significantly decreased
- number of Fos-positive neurons in laminae VII-X ([7]; intrathecal 10, 20 and 30 μg, vs water): no significant reduction
- Fos-positive neurons in the spinal cord ([7]; treatment with the agent only (30 μg intrathecal), no formalin): no Fos-positive neurons
- effect on the baseline tail-flick latency (tail-flick latency; 7.5, 15 and 30 μg given alone, 15 to 120 min after administration, p>0.05): no significant effect
- effect on the hyperalgesia induced by NOC-12 ([8]; 7.5 μg intrathecal, 30 μg NOC-12, p>0.05): did not influence
- effect on NOC-12-induced decrease in the tail-flick latency ([8]; 15 μg intrathecal 10 min prior to 30 μg NOC-12): significantly blocked
- effect on NOC-12-induced decrease in the tail-flick latency ([8]; 30 μg intrathecal 10 min prior to 30 μg NOC-12): significantly blocked
- effect on the NMDA-evoked facilitation of the tail-flick reflex ([2]; 7.5 μg intrathecal, p>0.05): failed to produce significant effect
- suppression of the NMDA-induced decrease of the tail-flick latency ([2]; 15 μg intrathecal prior administration, p<0.01): 13.3%
- suppression of the NMDA-induced decrease of the tail-flick latency ([2]; 30 μg intrathecal prior administration, p<0.01): 20.7%
- changes in animal behavior on subjective observation [5]: no obvious changes in animal behavior

Structure (SMILES): CCNCCN(CC)N(O)N=O [NOC-12, N-ethyl-2-(1-ethyl-2-hydroxy-2-nitrosohydrazino)ethanamine]
- maximal decrease in the tail-flick latency (tail-flick latency; 10 μg intrathecal): 5.4%
- maximal decrease in the tail-flick latency (tail-flick latency; 20 μg intrathecal, p<0.01): 18.5%
- maximal decrease in the tail-flick latency (tail-flick latency; 30 μg intrathecal, p<0.01): 24.9%
- tail flick latency after maximal reduction (tail-flick latency; 30 μg intrathecal, baseline 6.53±0.28 seconds): 4.65 ± 0.32 s
- hyperalgesia 120 min after intrathecal injection (tail-flick latency; 120 min after intrathecal injection): no longer observed
- time of maximum effect on tail-flick latency (tail-flick latency; intrathecal, decrease seen from 15 to 90 min): 60 min
- changes in animal behavior on subjective observation [5]: no obvious changes in animal behavior

Structure (SMILES): O=[N+]([O-])c1cccc2cn[nH]c12 [7-NI, 7-Nitroindazole]
- PKGIα protein level relative to group 1 (saline-injected control) [1, 9]: 1.17 fold
